Measured values published in ChEMBL document CHEMBL1130366, “Search for surrogates: A study of endothelin receptor antagonist structure activity relationships” (Bioorg Med Chem Lett, 1997).

What was measured:
[1] = molecular target: T1, Endothelin receptor type B (Homo sapiens, UniProt P24530); test: Inhibition of I-ET-1 binding to human Endothelin B receptor
T1 sequence (P24530 whole entry): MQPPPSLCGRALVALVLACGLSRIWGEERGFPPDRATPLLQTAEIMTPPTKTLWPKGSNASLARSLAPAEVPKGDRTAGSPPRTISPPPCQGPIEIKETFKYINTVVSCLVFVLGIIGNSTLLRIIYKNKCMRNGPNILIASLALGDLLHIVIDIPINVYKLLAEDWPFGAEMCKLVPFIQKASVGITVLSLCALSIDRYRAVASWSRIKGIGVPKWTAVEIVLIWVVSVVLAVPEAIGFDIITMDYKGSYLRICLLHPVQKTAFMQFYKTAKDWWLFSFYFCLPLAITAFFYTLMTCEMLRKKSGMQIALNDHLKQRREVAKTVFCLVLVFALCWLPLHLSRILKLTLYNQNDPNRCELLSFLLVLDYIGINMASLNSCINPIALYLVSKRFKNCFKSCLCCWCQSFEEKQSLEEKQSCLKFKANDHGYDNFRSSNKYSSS

Endothelin-1 receptor = molecular target: T2, Endothelin-1 receptor (Homo sapiens, UniProt P25101); test: Inhibition of I-ET-1 binding to human Endothelin A receptor
T2 sequence (P25101 whole entry): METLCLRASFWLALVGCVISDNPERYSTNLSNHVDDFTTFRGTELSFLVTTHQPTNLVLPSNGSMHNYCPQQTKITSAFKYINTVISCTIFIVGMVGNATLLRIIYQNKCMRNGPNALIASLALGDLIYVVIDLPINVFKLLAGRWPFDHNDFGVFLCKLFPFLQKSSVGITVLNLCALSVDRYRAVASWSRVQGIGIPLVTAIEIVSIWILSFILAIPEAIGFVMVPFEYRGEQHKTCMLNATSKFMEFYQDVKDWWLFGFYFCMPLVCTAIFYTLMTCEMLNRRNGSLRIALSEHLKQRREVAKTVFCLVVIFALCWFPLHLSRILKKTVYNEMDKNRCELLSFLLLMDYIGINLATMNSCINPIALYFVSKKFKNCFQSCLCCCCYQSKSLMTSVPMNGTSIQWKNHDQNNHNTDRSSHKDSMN

Row | Structure (SMILES) | IC50 [1] [µM] | IC50 (Endothelin-1 receptor) [nM]
1 | Cc1ccc(OCc2sccc2S(=O)(=O)Nc2onc(C)c2Br)cc1 | 15.6 | –
2 | CCCc1cc2c(cc1OCc1sccc1S(=O)(=O)Nc1onc(C)c1Br)OCO2 | 0.335 | 104
3 | Cc1noc(NS(=O)(=O)c2sccc2COc2ccc3c(c2)OCO3)c1Br | 9.55 | 513
4 | Cc1ccc(OCc2ccsc2S(=O)(=O)Nc2onc(C)c2Br)c(C)c1 | 7.27 | –
5 | CCCc1cc2c(cc1OCc1ccsc1S(=O)(=O)Nc1onc(C)c1Br)OCO2 | 1.3 | 134
6 | Cc1noc(NS(=O)(=O)c2ccsc2COc2cc3c(cc2Cl)OCO3)c1Br | 0.765 | 129
7 | Cc1noc(NS(=O)(=O)c2ccsc2COc2ccc3c(c2)OCO3)c1Br | 5.93 | 299
8 | Cc1cc(C)c(OCc2sccc2S(=O)(=O)Nc2onc(C)c2Br)c(C)c1 | 3.07 | 62
9 | Cc1cc(C)c(OCc2ccsc2S(=O)(=O)Nc2onc(C)c2Br)c(C)c1 | 4.28 | 54
